pKi: −log10 of the molar value. Counter-ions that a name gives are not always drawn.
test system: not given; assay: not given; details: not given

Row | melting point [°C] | SMILES
1 | 237.1 to 240 | Cc1cc(C2CCCN2C)ccc1-c1ccc(CN2CCCCC2)cc1 (stereo not drawn) (as salt: HCl) [Example 79, 1-[2′-Methyl-4′-(1-methylpyrrolidin-2-yl)-biphenyl-4-ylmethyl]-piperidine]
2 | 179.9 to 181.3 | CC(c1ccc(-c2ccc(-c3cncnc3)cc2F)cc1)N1CCCC1 (stereo not drawn) (as salt: HCl) [Example 94, 5-[2-Fluoro-4′-(1-pyrrolidin-1-ylethyl)-biphenyl-4-yl]-pyrimidine]
3 | 238.2 to 239.3 | Cc1cc(C2CCCN2C)ccc1-c1ccc(CNCc2ccc(Cl)cc2)cc1 (stereo not drawn) (as salt: hydrochloride) [Example 96, (4-Chlorobenzyl)-[2′-methyl-4′-(1-methylpyrrolidin-2-yl)-biphenyl-4-ylmethyl]-amine]

target: T1, rat histamine H3 receptors (Rattus norvegicus, UniProt Q9QYN8); assay: Rat H3 binding (3H-N-methylhistamine displacement, rat frontal brain membranes); details: radioligand 1 nM 3H-N-methylhistamine, 1 hour incubation
T1 construct: Frozen rat frontal brain or frozen human post-mortem frontal brain is homogenized; from tissue; host or cells: rat frontal brain membranes
T1 sequence (Q9QYN8 whole entry): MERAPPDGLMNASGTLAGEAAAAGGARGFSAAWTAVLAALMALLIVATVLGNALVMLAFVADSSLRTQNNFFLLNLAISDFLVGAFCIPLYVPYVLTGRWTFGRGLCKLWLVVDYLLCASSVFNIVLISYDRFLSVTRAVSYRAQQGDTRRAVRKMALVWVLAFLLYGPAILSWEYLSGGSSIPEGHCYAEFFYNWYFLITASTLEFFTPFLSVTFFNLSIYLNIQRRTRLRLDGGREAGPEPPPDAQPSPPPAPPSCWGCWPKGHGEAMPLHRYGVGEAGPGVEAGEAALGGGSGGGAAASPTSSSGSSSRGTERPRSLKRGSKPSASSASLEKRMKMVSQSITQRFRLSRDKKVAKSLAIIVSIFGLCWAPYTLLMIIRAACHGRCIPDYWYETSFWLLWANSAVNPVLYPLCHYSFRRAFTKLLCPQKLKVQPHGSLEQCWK
Procedure: The in vitro affinity of the compounds in the present invention at the rat or human histamine H3 receptors can be determined according to the following procedure. Frozen rat frontal brain or frozen human post-mortem frontal brain is homogenized in 20 volumes of cold 50 mM Tris HCl containing 2 mM MgCl2 (pH to 7.4 at 4 degrees C.). The homogenate is then centrifuged at 45,000 G for 10 minutes. The supernatant is decanted and the membrane pellet re-suspended by Polytron in cold 50 mM Tris HCl containing 2 mM MgCl2 (pH to 7.4 at 4 degrees C.) and centrifuged again. The final pellet is re-suspended in 50 mM Tris HCl containing 2 mM MgCl2 (pH to 7.4 at 25 degrees C.) at a concentration of 12 mg/mL. Dilutions of compounds are made in 10% DMSO/50 mM Tris buffer (pH 7.4) (at 10×final concentration, so that the final DMSO concentration is 1%). Incubations are initiated by the addition of membranes (200 microliters) to 96 well V-bottom polypropylene plates containing 25 microliters of drug dilutions and 25 microliters of radioligand (1 nM final concentration ^3H—N-methylhistamine). After a 1 hour incubation, assay samples are rapidly filtered through Whatman GF/B filters and rinsed with ice-cold 50 mM Tris buffer (pH 7.4) using a Skatron cell harvester. Radioactivity is quantified using a BetaPlate scintillation counter.

Row | pKi | SMILES
4 | 7.40 | CC(c1ccc(-c2ccc(-c3ccncc3)cc2)cc1)N1CCCC1 (racemic) [Example 1, (R)-(±)-4-[4′-(1-Pyrrolidin-1-ylethyl)-biphenyl-4-yl]-pyridine]
5 | 7.21 | CC(c1ccc(-c2ccc(-c3cncnc3)cc2)cc1)N1CCCC1 (racemic) [Example 6, (±)-5-[4′-(1-Pyrrolidin-1-ylethyl)-biphenyl-4-yl]-pyrimidine]
6 | 7.64 | CC(c1ccc(-c2ccc(-c3cncnc3)cc2)cc1)N1CCCC1 (racemic) [Example 7, (R)-(±)-5-[4′-(1-Pyrrolidin-1-ylethyl)-biphenyl-4-yl]-pyrimidine]
7 | 8.46 | CC(c1ccc(-c2ccc(C3CCNCC3)cc2)cc1)N1CCCC1 (racemic) [Example 72, (R)-(±)-4-[4′-(1-Pyrrolidin-1-ylethyl)-biphenyl-4-yl]-piperidine]
8 | 8.00 | CC(c1ccc(-c2ccc(C3CCNCC3)cc2)cc1)N1CCCC1 (racemic) [Example 74, (±)-4-[4′-(1-Pyrrolidin-1-yl-ethyl)-biphenyl-4-yl]-piperidine]
9 | 6.86 | C[C@@H](c1ccc(-c2ccc(-c3ccncc3)cc2)cc1)N1CCCC1 [Example 2, (S)-(−)-4-[4′-(1-Pyrrolidin-1-ylethyl)-biphenyl-4-yl]-pyridine]
10 | 7.45 | C[C@H](c1ccc(-c2ccc(-c3cccnc3)cc2)cc1)N1CCCC1 [Example 4]
11 | 7.35 | COc1ncc(-c2ccc(-c3ccc([C@@H](C)N4CCCC4)cc3)cc2)c(OC)n1 [Example 5, (R)-2,4-Dimethoxy-5-[4′-(1-pyrrolidin-1-ylethyl)-biphenyl-4-yl]-pyrimidine]
12 | 7.30 | CC(c1ccc(-c2ccc(-c3cccnc3)cc2)cc1)N1CCCC1 (stereo not drawn) [Example 9, 3-[4′-(1-Pyrrolidin-1-ylethyl)-biphenyl-4-yl]-pyridine]
13 | 7.60 | CC(c1ccc(-c2ccc(-c3cncnc3)cc2)cc1)N1CCCC1 (stereo not drawn) [Example 20, 5-[4′-(1-Pyrrolidin-1-ylethyl)-biphenyl-4-yl]-pyrimidine]
14 | 7.28 | CC(c1ccc(-c2ccc(-c3ccncc3)cc2)cc1)N1CCCC1 (stereo not drawn) [Example 24, 4-[4′-(1-Pyrrolidin-1-ylethyl)-biphenyl-4-yl]-pyridine]
15 | 7.87 | CC(c1ccc(-c2ccc(-c3ccccc3C(=O)N(C(C)C)C(C)C)cc2)cc1)N1CCCC1 (stereo not drawn) [Example 28, 4″-(1-Pyrrolidin-1-ylethyl)-[1,1′;4′,1″]terphenyl-2-carboxylic acid diisopropylamide]
16 | 7.64 | CC(c1ccc(-c2ccc(-c3ccc(S(C)(=O)=O)cc3)cc2)cc1)N1CCCC1 (stereo not drawn) [Example 35, 1-[1-(4-Methanesulfonyl-[1,1′;4′,1″]terphenyl-4″-yl)-ethyl]-pyrrolidine]
17 | < 6.85 | CC(c1ccc(-c2ccc(-c3ccncc3)cc2)cc1)N(C)C (stereo not drawn) [Example 39, Dimethyl-[1-(4′-pyridin-4-ylbiphenyl-4-yl)-ethyl]-amine]
18 | 7.14 | C[C@@H](c1ccc(-c2ccc(C3CCNCC3)cc2)cc1)N1CCCC1 [Example 73, (S)-(−)4-[4′-(1-Pyrrolidin-1-ylethyl)-biphenyl-4-yl]-piperidine]
19 | 7.61 | C[C@H](c1ccc(-c2ccc(C3CCN(C)CC3)cc2)cc1)N1CCCC1 [Example 77, (R)-1-Methyl-4-[4′-(1-Pyrrolidin-1-ylethyl)-biphenyl-4-yl]-piperidine]
20 | 7.67 | CCN1CCC(c2ccc(-c3ccc([C@@H](C)N4CCCC4)cc3)cc2)CC1 [Example 78, (R)-1-Ethyl-4-[4′-(1-pyrrolidin-1-ylethyl)-biphenyl-4-yl]-piperidine]
21 | 7.86 | Cc1cc(C2CCCN2C)ccc1-c1ccc(CN2CCCCC2)cc1 (stereo not drawn) [Example 79, 1-[2′-Methyl-4′-(1-methylpyrrolidin-2-yl)-biphenyl-4-ylmethyl]-piperidine]
22 | 7.36 | CC(c1ccc(-c2ccc(-c3cnc(O)nc3)cc2)cc1)N1CCCC1 (stereo not drawn) [Example 90, 5-[4′-(1-Pyrrolidin-1-ylethyl)-biphenyl-4-yl]-pyrimidin-2-ol]
23 | 7.42 | CC(c1ccc(-c2ccc(-c3cnc(Cl)nc3)cc2)cc1)N1CCCC1 (stereo not drawn) [Example 91, 2-Chloro-5-[4′-(1-pyrrolidin-1-ylethyl)-biphenyl-4-yl]-pyrimidine]
24 | 7.38 | COc1ncc(-c2ccc(-c3ccc(C(C)N4CCCC4)cc3)cc2)cn1 (stereo not drawn) [Example 92, 2-Methoxy-5-[4′-(1-pyrrolidin-1-ylethyl)-biphenyl-4-yl]-pyrimidine]
25 | 6.98 | CC(c1ccc(-c2ccc(-c3cnc(N)nc3)cc2)cc1)N1CCCC1 (stereo not drawn) [Example 93, 5-[4′-(1-Pyrrolidin-1-ylethyl)-biphenyl-4-yl]-pyrimidin-2-ylamine]
26 | 7.64 | CC(c1ccc(-c2ccc(-c3cncnc3)cc2F)cc1)N1CCCC1 (stereo not drawn) [Example 94, 5-[2-Fluoro-4′-(1-pyrrolidin-1-ylethyl)-biphenyl-4-yl]-pyrimidine]
27 | 7.83 | Cc1cc(C2CCCN2C)ccc1-c1ccc(CNCc2ccc(Cl)cc2)cc1 (stereo not drawn) [Example 96, (4-Chlorobenzyl)-[2′-methyl-4′-(1-methylpyrrolidin-2-yl)-biphenyl-4-ylmethyl]-amine]
